Measured values reported in patent US20090175905A1, “TRANSFECTION REAGENT AND METHOD FOR ENHANCING TRANSFECTION EFFICIENCY” (National Taiwan University of Science and Technology, priority 2008, published 2009).
Read-outs that look alike come from different tables or passages of the source.

Key:
[1] = tested on: Chinese hamster ovary (CHO) cells; assay: In vitro transfection of CHO cells with pEGFP-C1 plasmid and DOTAP liposomes plus disaccharides, GFP by flow cytometer; assay type: cell-based; conditions: DOTAP liposomes; for effect on transfection efficiency: appropriate amount of disaccharide
Text: FIG. 2 present the effects of disaccharides on the transgene expression of cultured Chinese hamster ovary (CHO) cells subjected to an in vitro transfection of DNA with a transfection reagent containing DOTAP and various disaccharides. The x-axis in FIG. 2 refers to the disaccharide concentration in the transfection reagent, and the y-axis in FIG. 2 represents the GFP (green fluorescent protein)-positive percentage of the transfected CHO cells measured by a flow cytometer. The GFP-positive percentage of the CHO cells is used as an indicator of transfection efficiency. In the experiments shown in FIG. 2, various concentrations of cellobiose, lactose, sucrose, trehalose and maltose are respectively incorporated into a transfection reagent containing pEGFP-C1 plasmid and DOTAP liposomes, and in vitro transfections are performed with the transfection reagents containing different disaccharides. The GFP-positive percentage of CHO cells is then detected for each transfection reagent sample. […] In other words, the incorporation of a disaccharide into the transfection reagent affects the transfection efficiency. Moreover, the changes in transfection efficiency are related to the type and the concentration of the disaccharide in the transfection reagent. […] More particularly, the transfection efficiency increases from 28% to more than 40% at 180 mM of lactose, sucrose or trehalose in a transfection reagent. The transfection efficiency is doubled when 120 mM of cellobiose is incorporated into a transfection reagent.

[2] = tested on: Chinese hamster ovary (CHO) cells; assay: In vitro transfection of CHO cells with different lipid-based vectors plus disaccharides, GFP-positive percentage; assay type: cell-based; conditions: 120 mM disaccharide; DOTAP, DOTAP/Chol, DOTAP/DOPE, DC-Chol/DOPE or LPD vector
Text: FIGS. 3A and 3B present the effects of disaccharides on the transgene expression of cultured Chinese hamster ovary (CHO) cells subjected to an in vitro transfection of DNA with a transfection reagent containing different lipid-based vectors plus different disaccharides. The x-axis in FIGS. 3A and 3B represents the lipid composition, and the y-axis represents the GFP-positive percentage of the transfected CHO cells, which is used as an indicator for transfection efficiency. In the experiments shown in FIGS. 3A and 3B, DOTAP, DOTAP/Chol, DOTAP/DOPE, DC-Chol/DOPE or LPD applied as a vector is incorporated into a pEGFP-C1 plasmid-containing transfection reagent. Thereafter, 120 mM of various disaccharides is incorporated into the transfection reagent, and in vitro cell transfection is performed followed by detecting the cell percentage of GFP expression.

lung tissues = assay: In vivo transfection by tail vein injection of gWiz-luciferase plasmid with lipid-based vectors plus disaccharides, luciferase activity in lung; set-up: species or system mouse; conditions: for effect on transfection efficiency (luminescent intensity, lung): DOTAP, DOTAP/Chol or LPD vector, i.v.
Experimental: FIG. 4A presents the effects of disaccharides on the transgene expression after intravenous injection of DOTAP-based vectors with various disaccharides by way of mouse tail vein. Various concentrations of […] and […] are respectively incorporated into the transfection reagent containing the gWiz-luciferase plasmid and DOTAP liposomes. The transfection reagent is administered via intravenous injection through the tail vein of a 4-6 weeks old ICR (CD-1) […]. The […] is sacrificed 24 hour after the intravenous injection, and the activity of luciferase in the lung tissues of the […] is observed. The x-axis in FIG. 4A represents the disaccharide concentration in the tranfection reagent, and the y-axis in FIG. 4 represents the luminescent intensity, measured by a luminometer and expressed as relative light unit (RLU) per mg of lung tissue protein. The luminescent intensity is used as an indicator of transfection efficiency. […] Accordingly, cellobiose and trehalose can improve the efficiency of cell transfection in vivo, and the transfection efficiency increases as the concentration of the disaccharide increases. FIG. 4B presents the effects of disaccharides on the transgene expression after intravenous injection of different lipid-based vectors with various disaccharides by way of mouse tail vein. DOTAP, DOTAP/chol and LPD are respectively added as a vector into the tranfection reagent containing gWiz-luciferase plasmid. A concentration of 330 mM cellobiose or trehalsoe is incorporated into the transfection reagent. The transfection reagent is then intravenously injected into the animal for cell transfection. The x-axis in FIG. 4B represents the type of the lipid-based vector, and the y-axis in FIG. 4B represents the luminescent intensity, measured by a luminometer and expressed as relative light unit (RLU) per mg of lung tissue protein.

CHO cells [3] = assay: In vitro transfection of CHO cells with DNA-PEI plus disaccharides, GFP by flow cytometer; assay type: cell-based, Chinese hamster; conditions: PEI to DNA charge ratio 9:1
Text: In the following experiments, a polyethyleneimine (PEI)-based vector is used to perform cell transfection. Further, various disaccharides are incorporated into the transfection reagent containing DNA and the vector, and the effects of disaccharides on cell transfection are observed.
(§1) FIG. 6 presents the effects of disaccharides on the transfection efficiency of in vitro cultured CHO cells that are transfected with transfection reagents containing PEI and different disaccharides. The x-axis in FIG. 6 represents the concentrations of different disaccharide in the transfection reagent, and the y-axis represents the GFP expression percentage of the transfected CHO cells detected by a flow cytometer. The GFP expression percentage of the transfected CHO cells is used as an indicator of transfection efficiency. […] The effect of disaccharides in the transfection reagent on transfection efficiency is then analyzed. […] In other words, the cell transfection efficiency is enhanced.

COS-7 cells = assay: DNA-PEI transfection with trehalose, GFP expression percentage, COS-7; assay type: cell-based; conditions: 180 mM trehalose
Text: as §1
(§2) FIGS. 7A and & 7B show the optimal trehalose concentrations for enhancing the transfection expression mediated by DNA-PEI complexes in different cell lines. The x-axis in FIGS. 7A and 7B […] represents the concentrations of trehalose in the transfection reagent, and the y-axis represents the GFP expression percentage of the cells as an indicator of transfection efficiency The transfection procedures in these experiments of different cell lines are identical to those described previously for CHO cells in experiment 5. […] Moreover, the extents of enhancement on the transfection efficiency depend on the cell lines. […]

293 cells = assay: DNA-PEI transfection with trehalose, GFP expression percentage, 293; assay type: cell-based; conditions: 180 mM trehalose
Text: as §1, §2

MDA-MB-231 = assay: DNA-PEI transfection with trehalose, GFP expression percentage, MDA-MB-231; assay type: cell-based; conditions: 20 mM trehalose, MDA-MD-231
Text: as §1, §2

B16F10 = assay: DNA-PEI transfection with trehalose, GFP expression percentage, B16F10; assay type: cell-based; conditions: 20 mM trehalose
Text: as §1, §2

KB = assay: DNA-PEI transfection with trehalose, GFP expression percentage, KB; assay type: cell-based; conditions: 20 mM trehalose
Text: as §1, §2

CHO cells [4] = assay: MTT cellular viability of CHO cells transfected with DNA-PEI complexes plus trehalose; assay type: cell-based, Chinese hamster; conditions: PEI to DNA charge ratio 9:1; nontransfected CHO cells = 100%
Text: The x-axis in FIG. 5 represents different trehalose concentrations and the y-axis represents cellular viability analyzed by the MTT assay. In the experiments, the PEI to DNA charge ratio in the transfection reagent is maintained at 9:1, and the viability of nontransfected CHO cells is set at 100%. […] In other words, the incorporation of trehalose mitigates the toxic effect of the transfection reagent.

mouse muscles = assay: In vivo transfection of muscles by direct intramuscular injection of naked plasmid plus disaccharides, luciferase luminescence; conditions: for luminescent intensity (RLU per mg of muscular tissue protein) versus control group without disaccharides: 10 mM disaccharide
Experimental: The following experiments are conducted using naked nucleic acid delivery system for directly transfecting plasmid DNA into the cells of animals, and additional viral or non-viral vector is precluded. The transfection reagent is incorporated with various concentrations of disaccharides as an enhancer, and the effects of disaccharides in the naked nucleic acid delivery system on the cell transfection are observed.
FIG. 9 presents the effects of various disaccharides on the transgene expression of mouse muscles after direct intramuscular injection of naked plasmid. The transfection procedures in these experiments are identical to those described previously in experiment 3. The major differences between the two experiments are the vector applied and the method of transfection as well as the administration route into the body of the […]. The x-axis in FIG. 9 represents the types of disaccharides, and the y-axis represents the luminescent intensity, measured by a luminometer and expressed as relative light unit (RLU) per mg of muscular tissue protein, wherein the luminescent intensity is used as an indicator to evaluate the transfection efficiency.
FIG. 10 presents the effects of trehalose concentrations on the transgene expression of mouse muscles after direct intramuscular injection of naked plasmid. The x-axis in FIG. 10 represents the concentrations of trehalose in the transfection reagent, and the y-axis represents the luminescent intensity, measured by a luminometer and expressed as relative light unit (RLU) per mg of muscular tissue protein. The luminescent intensity is used as an indicator to evaluate transfection efficiency.
[…] presents the effects of gene dosage on the transgene expression of mouse muscles in the presence of trehalose after direct intramuscular injection of naked plasmid. The x-axis in FIG. 11 represents the amount of DNA plasmid, and the y-axis represents the luminescent intensity, measured by a luminometer and expressed as relative light unit (RLU) per mg of muscular tissue protein, wherein the luminescent intensity is used as an indicator to evaluate the transfection efficiency.
FIG. 12 presents the effects of the trehalose on the durations of transgene expression of mouse muscles after direct intramuscular injection of naked plasmid. The x-axis in FIG. 12 represents the days after the intramuscular injection, and the y-axis represents the luminescent intensity, measured by a luminometer and expressed as relative light unit (RLU) per mg of muscular tissue protein, wherein the luminescent intensity is used as an indicator to evaluate the transfection efficiency of gWiz-luciferase plasmid. […] In other words, trehalose might extend the durations of nucleic acid remaining inside the cells, and therefore prolonged the durations of transgene expression.

CHO cells [5] = assay: MTT cellular viability of CHO cells transfected with lipid-based carriers plus disaccharides; conditions: DOTAP, DOTAP/Chol, DOTAP/DOPE or LPD vector; nontransfected CHO cells = 100%
Text: (§3) FIG. 5 presents the effects of disaccharides on the cellular cytotoxicity of the in vitro cultured CHO cells transfected with transfection reagents containing lipid-based carriers.

CHO cells [6] = tested on: CHO cells
Text: as §3

[7] = DOTAP liposomes, i.v. tail vein, 24 hour, 180 mM disaccharide
[8] = DOTAP liposomes, i.v. tail vein, 24 hour, 330 mM disaccharide

SMILES | effect on transfection efficiency [1] | effect on transfection efficiency (GFP-positive percentage) [2] | effect on transfection efficiency (luminescent intensity, lung) (lung tissues; 330 mM disaccharide) | luminescent intensity in the lung tissue (RLU per mg of lung tissue protein) (lung tissues; [7]) | luminescent intensity in the lung tissue (RLU per mg of lung tissue protein) (lung tissues; [8]) | luminescent intensity (RLU per mg of muscular tissue protein) versus control group without disaccharides (mouse muscles; naked plasmid) | cellular viability analyzed by the MTT assay (CHO cells [6]) | further results
OC[C@H]1O[C@H](O[C@H]2O[C@H](CO)[C@@H](O)[C@H](O)[C@H]2O)[C@H](O)[C@@H](O)[C@@H]1O [trehalose] | increases significantly | significantly enhances the transfection efficiency | significant increase in transfection efficiency | increase the luminescent intensity significantly | increases noticeably | higher luminescent intensity | – | effect on GFP expression percentage (transfection efficiency) (CHO cells [3]): significantly increases the GFP expression percentage; GFP expression percentage (CHO cells [3]; 180 mM trehalose): about 20%; GFP expression percentage relative to absence of disaccharides (CHO cells [3]; 180 mM trehalose): about one fold higher; enhancement of percentage of GFP expressed cells (COS-7 cells): 37%; enhancement of percentage of GFP expressed cells (293 cells): 32%; enhancement of percentage of GFP positive cells (MDA-MB-231): about 50%; enhancement of percentage of GFP positive cells (B16F10): ~42%; enhancement of percentage of GFP positive cells (KB): ~13%; cellular viability analyzed by the MTT assay (CHO cells [4]): increases the cellular viability; duration of transgene expression (muscle luminescence over days after injection) (mouse muscles; naked gWiz-luciferase plasmid): higher luminescence intensities for a longer period of time; transfection efficiency versus control group without trehalose at the same amount of plasmid DNA (mouse muscles; naked plasmid, 10 mM trehalose): significantly higher; effect of trehalose concentration on transfection efficiency (muscle luminescent intensity) (mouse muscles; naked plasmid, trehalose between about 10 mM to 12.5 mM): increases significantly; cellular viability analyzed by the MTT assay (CHO cells [5]): improve the cellular viabilities
OC[C@H]1O[C@@](CO)(O[C@H]2O[C@H](CO)[C@@H](O)[C@H](O)[C@H]2O)[C@@H](O)[C@@H]1O [sucrose] | increases significantly | significantly enhances the transfection efficiency | – | – | – | – | improve the cellular viabilities | –
OC[C@H]1O[C@H](O[C@H]2[C@H](O)[C@@H](O)[C@H](O)O[C@@H]2CO)[C@H](O)[C@@H](O)[C@@H]1O [maltose] | increases significantly | – | – | – | – | – | improve the cellular viabilities | –
OC[C@H]1O[C@@H](O[C@H]2[C@H](O)[C@@H](O)C(O)O[C@@H]2CO)[C@H](O)[C@@H](O)[C@H]1O (stereo partly drawn) [lactose] | increases significantly | significantly enhances the transfection efficiency | – | – | – | higher luminescent intensity | improve the cellular viabilities | –
O=C[C@H](O)[C@@H](O)[C@H](O[C@@H]1O[C@H](CO)[C@@H](O)[C@H](O)[C@H]1O)[C@H](O)CO [cellobiose] | increases significantly | significantly enhances the transfection efficiency | significant increase in transfection efficiency | increase the luminescent intensity significantly | increases noticeably | – | improve the cellular viabilities | change of transfection efficiency ([1]; 120 mM cellobiose): doubled; increase of luciferase expression of lung (lung tissues; [8]): more than 10 fold
